Measurements taken from paper PMC11519904, “Comprehensive Cell Biological Investigation of Cytochalasin B Derivatives with Distinct Activities on the Actin Network” (Journal of Natural Products, 2024).
Where “and” joins values, the source holds several entries; their conditions need not be identical. Equal values may be shown once. Read-outs that look alike come from different tables or passages of the source.

How the values were obtained:
L929 (mouse fibroblast) = experiment: Cytotoxicity assay (MTT), L929; format: cell-based; conditions: 5 days of incubation, MTT, NC: no cytotoxic effect, or only weak inhibition of proliferation, read-out: IC50 L929
Procedure: The cytotoxicity assay was implemented in 96-well flat-bottom microtiter plates following a reported procedure.[21],[22],[33] The mammalian cell lines L929 (mouse fibroblast) and KB3.1 (human cervix carcinoma) were cultivated at 37 °C and 10% CO2 in Dulbecco’s modified minimum essential medium (DMEM, Life Technologies, Carlsbad, CA, USA) supplemented with 10% fetal bovine serum (FBS, Life Technologies). The microtiter plate was filled with 120 μL of suspended cells (50,000/mL), and 60 μL of a serial dilution of the test compound was added. After 5 days of incubation, growth inhibition (IC50) was determined by a colorimetric tetrazolium dye MTT assay.[34] The compounds were dissolved in MeOH (1 mg/mL), MeOH was used as negative control, and epothilone[35] (1 mg/mL) was used as positive control.

[1] = target: T1, actin (G-actin purified from rabbit skeletal muscle) (Oryctolagus cuniculus, UniProt P68135); experiment: Pyrene actin polymerization assay; format: biochemical; conditions: 2 μM compound, 2 μM actin (5% pyrene-actin), 550 nM actin seeds, after 30 min; control = 100%
T1 construct: 1.5 kg of fresh rabbit skeletal muscle was minced with a meat grinder; from tissue; host or cells: rabbit skeletal muscle (acetone powder)
Source text: To rule out that the reduced in cellulo efficacies of 3–5 could instead be explained by an altered membrane permeability of modified compounds or their differential effects on other intracellular factors, pyrene actin polymerization assays[23] were used to analyze potential effects on actin assembly in vitro under defined conditions. Globular actin (G-actin) was purified from rabbit skeletal muscle[24] and fluorescently labeled with pyrene (see description in the Supporting Information). G-actin (2 μM) supplemented with 5% pyrene-labeled actin was added to actin seeds and the respective compound (2 μM) in polymerization buffer to initiate the reaction. Actin polymerization was then assessed by reading out the increasing pyrene fluorescence signal over time (Figure 3).
Acetone powder and G-actin were prepared as described previously.[24] Briefly, 1.5 kg of fresh rabbit skeletal muscle was minced with a meat grinder. Subsequently, the meat was stirred for 15 min in 2.5 L of high-salt buffer (0.5 M KCl, 0.1 M K2HPO4, 2 mM benzamidine, pH 6.4) and then pelleted at 4000g for 10 min. The supernatant was discarded, and the pellet was extracted once more with high-salt buffer and then washed twice with ice-cold ddH2O adjusting the slurry with 1 M Na2CO3 to pH 8.3 until a slight swelling of the pellet became visible. The pellet was then resuspended in ice-cold acetone, stirred for 15 min, and then centrifuged for 10 min at 4000g. The supernatant was discarded, and the pellet was washed once more with acetone before the pellet was broken up and dried in small pieces on aluminum foil under a fume hood overnight. The dried acetone powder was stored at −80 °C for further use.
For purification of G-actin, 5 g of the acetone powder was extracted five times with 50 mL of G-buffer containing 2 mM Tris-HCl, pH 8.0, 0.2 mM CaCl2, 0.5 mM DTT, 0.2 mM Na2ATP, and 0.1 mg/mL NaN3. After each step, the solution was filtered through a fine gauze, yielding a total volume of 250 mL. Subsequently, the solution was centrifuged for 30 min at 20,000g at 4 °C. Actin in the supernatant was then polymerized by addition of 25 × polymerization buffer (250 mM Tris-HCl pH 8.0, 1250 mM KCl, 25 mM Na2ATP, 50 mM MgCl2 × 6 H2O) overnight. Subsequently, KCl was added to a final concentration of 750 mM, followed by centrifugation of the solution at 150,000g at 4 °C for 3 h. The F-actin pellet was then homogenized with 25 mL of G-actin buffer using a potter and then dialyzed against G-buffer. After a final centrifugation step at 150,000g at 4 °C for 3 h, G-actin was purified by size exclusion chromatography using a HiLoad 26/75 Superdex 200 column. Actin concentrations were determined by measuring the absorbance at 290 nm and using an extinction coefficient of 26,600 M^–1 cm^–1.
For pyrene labeling, 10–20 mL of G-actin solution were dialyzed against labeling buffer following the procedure described by Doolittle et al.[38] […]
Pyrene assays were conducted to assess the inhibitory properties of cytochalasins on actin polymerization under defined conditions in vitro using G-actin and actin seeds. The degree of labeling was determined; EC290 nm actin: 26600 1/M × cm; EC342 nm pyrene: 31091 1/M × cm. […]

Structure (SMILES)	IC50 (L929 (mouse fibroblast)) [µM]	IC50 (L929 (mouse fibroblast); Mus musculus, L929, 120 h) [µM]	relative actin polymerization rate [1]
C=C1[C@@H](C)[C@H]2[C@H](Cc3ccccc3)NC(=O)[C@]23OC(=O)/C=C/[C@H](O)CCC[C@@H](C)C/C=C/[C@H]3[C@@H]1OC(C)=O [Compound 3, 7-O-acetyl cytochalasin B]	16	> 10	107%
C=C1[C@@H](C)[C@H]2[C@H](Cc3ccccc3)N(C(C)=O)C(=O)[C@]23OC(=O)/C=C/[C@H](O)CCC[C@@H](C)C/C=C/[C@H]3[C@@H]1O [Compound 5, N-acetyl cytochalasin B]	9.4	4.8 to 9.4	86% and 84–86%
C=C1[C@@H](C)[C@H]2[C@H](Cc3ccccc3)NC(=O)[C@]23OC(=O)/C=C/[C@H](OC(C)=O)CCC[C@@H](C)C/C=C/[C@H]3[C@@H]1O [Compound 6, 20-O-acetyl cytochalasin B]	4.8	4.8 to 9.4	58%
